{"source": "patent US20030077689A1", "about": "“Microbial growth variations” (priority 1999, published 2003)", "tested_on": "Staphylococcus aureus", "test": "Replicate-well microdilution growth test (32 replicates per antibiotic concentration), growth ranked by viability in culture and direct epifluorescence", "assay_type": "cell-based", "conditions": "for growth response of replicate wells: 5 hours at 37° C.", "excerpt": "Format: In general terms the entire series of tests followed the methods for use of microdilution plates. Each of the eight antibiotic concentrations was represented by 32 replicate wells, thus amounting to 8×32[256] test wells in a three plate array.\nOrganisms: Two cultures of Staphylococcus aureus, with one isolated from plates containing penicillin supplemented agar to provide cells of known β lactamase activity.\nInoculum: A target level of 10^2 cells/wells was selected to test an adequate number of organisms within each treatment. In the examples 2-4 the aim was to include an increasing proportion of resistant/β lactamase positive cells. Preparation by dilutions at these levels will undoubtedly be prone to errors.\nIncubation: Sealed plates incubated for 5 hours at 37° C. [previously shown to provide significant growth]. At the end of incubation well contents […] were transferred to 200 μl using individual sterile pipette tips [i.e. one/well].\nA 100 μl sample of diluted well contents was plated and spread on culture plates. The growth, corresponding to the situation at 5 hours, was assessed after incubation of the culture plates overnight.\nii. Direct Epifluorescence Method\nA second 100 μl sample was filtered through a commercially available 0.2μ nuclepore membrane. This non-fluorescent, black filter was supported on a 5.0μcellulosic membrane filter. Discrete 3.0 mm diameter filter zones were created by attaching pre-punched black adhesive tape to the membranes. After filtration the zones were stained with 0.01% w/v Acriflavine™ in phosphate buffer at pH 7.2 [filtered immediately before use]. Direct observation, using an epifluorescence microscope resembles the DEFT method described by Pettifer G L Rodrigues U K [1982] J.Appl.Bact. 53:323-329. Using a large numerical aperture×45 objective it is relatively simple to rank the estimated density of growth.\nThe viability test depicts growth responses in terms of organisms recovered and subsequently able to produce colonies on a secondary culture plate. Direct epifluorescence/filtration does constitute rapid detection but in this manual form is both cumbersome and labour intensive. Within these constraints both methods served to assign rankings to the growth response of every well. The two methods were adequate to indicate the presence of growth.", "data": [{"substance": "Penicillin", "values": [{"measurement": "growth response of replicate wells", "setting": "Example 1 (no resistant cells added), antibiotic levels higher than 0.015 μg/ml", "result": "no evidence of growth"}, {"measurement": "growth response of replicate wells", "setting": "Examples 1-4, antibiotic concentration 0.004 μg/ml, 32 replicate wells", "result": "all 32 replicate wells exhibit continued growth"}, {"measurement": "growth response of replicate wells", "setting": "Examples 1-4, antibiotic concentration 0.015 μg/ml", "result": "the population in some wells exhibits sensitivity"}, {"measurement": "growth response of replicate wells", "setting": "Examples 2, 3 and 4 (inoculum with increasing proportion of resistant/β lactamase positive cells)", "result": "an appreciable number of wells show low grade growth"}, {"measurement": "sensitivity of resistant sub-populations in some wells", "setting": "Examples 2, 3 and 4, antibiotic concentration 0.250 μg/ml", "result": "insensitive"}]}]}
